Laboratory results as given in patent US9765105B2, “Macrolide compound” (Pulike Biological Engineering, Inc., priority 2013, dated 2017).

Key:
Assay in all cases: in vitro susceptibility, MIC by mini broth dilution
Assay type in all cases: cell-based
Haemophilus parasuis = system: Haemophilus parasuis
Method in brief: (§1)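 Broth microdilution MIC, NCCLS method: 11-point two-fold DMSO compound series, duplicate rows, well 12 as control. Inoculum from 20 h, 35° C plate cultures, diluted 1:200 in broth.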

[1] = system: Pasteurella multocida CVCC399; conditions: strain CVCC399
Method in brief: as §1

[2] = system: Actinobacillus pleuropneumoniae CVCC262; conditions: strain CVCC262
Method in brief: as §1

[3] = system: Streptococcus equines CVCC556; conditions: strain CVCC556
Method in brief: as §1

[4] = system: Staphylococcus aureus CVCC26003; conditions: strain CVCC26003
Method in brief: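 S. aureus CVCC26003 was revived and subcultured twice, 20 h each at 35° C, on solid medium, then diluted 1:200 in CAMHB liquid medium. Compounds received an 11-step two-fold DMSO dilution in parallel duplicate rows. MIC was read by mini broth dilution per NCCLS guidance.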

MIC values, Haemophilus parasuis (Haemophilus parasuis)	MIC values, Pasteurella multocida CVCC399 [1]	MIC values, Actinobacillus pleuropneumoniae CVCC262 [2]	MIC values, Streptococcus equines CVCC556 [3]	MIC values, Staphylococcus aureus CVCC26003 [4]	Compound
2 ug/mi	0.5 ug/mi	1 ug/mi	1 ug/mi	0.5 ug/mi	CCC(CO)NC[C@]1(O)[C@H](C)O[C@@H](O[C@H]2[C@H](C)[C@@H](O[C@@H]3O[C@H](C)C[C@H](N(C)C)[C@H]3O)[C@](C)(O)C[C@@H](C)NC[C@H](C)[C@@H](O)[C@](C)(O)[C@@H](CC)OC(=O)[C@@H]2C)C[C@@]1(C)OC (stereo partly drawn) [syzx-51, (2R,3S,4R,5S,8R,10R,11R,12S,13S,14R)-13-[(2,6-dideoxy-3-C-methyl-3-O-methyl-4-C-[(1-hydroxymethyl-propylamino)-methyl]-α-L-ribopyranosyl)oxy]-2-ethyl-3,4,10-trihydroxy-3,5,8,10,12,14-hexamethyl-11-[[3,4,6-trideoxy-3-(dimethylamino)-β-D-xylo-hexopyranosy]oxy]-1-oxa-7-azacyclopentadecan-15-one]
≦0.25 ug/mi	0.5 ug/mi	32 ug/mi	0.5 ug/mi	0.5 ug/mi	CC[C@H]1OC(=O)[C@H](C)[C@@H](O[C@H]2C[C@@](C)(OC)[C@](O)(CNCC(O)c3ccccc3)[C@H](C)O2)[C@H](C)[C@@H](O[C@@H]2O[C@H](C)C[C@H](N(C)C)[C@H]2O)[C@](C)(O)C[C@@H](C)NC[C@H](C)[C@@H](O)[C@]1(C)O (stereo partly drawn) [syzx-52, (2R,3S,4R,5S,8R,10R,11R,12S,13S,14R)-13-[(2,6-dideoxy-3-C-methyl-3-O-methyl-4-C-[(2-hydroxy-2-phenyl-ethylamino)-methyl]-α-L-ribopyranosyl)oxy]-2-ethyl-3,4,10-trihydroxy-3,5,8,10,12,14-hexamethyl-11-[[3,4,6-trideoxy-3-(dimethylamino)-β-D-xylo-hexopyranosy]oxy]-1-oxa-7-azacyclopentadecan-15-one]
0.5 ug/mi	1 ug/mi	0.25 ug/mi	0.25 ug/mi	0.5 ug/mi	CC[C@H]1OC(=O)[C@H](C)[C@@H](O[C@H]2C[C@@](C)(OC)[C@](O)(CNCCCC(OC)OC)[C@H](C)O2)[C@H](C)[C@@H](O[C@@H]2O[C@H](C)C[C@H](N(C)C)[C@H]2O)[C@](C)(O)C[C@@H](C)NC[C@H](C)[C@@H](O)[C@]1(C)O [syzx-56, (2R,3S,4R,5S,8R,10R,11R,12S,13S,14R)-13-[(2,6-dideoxy-3-C-methyl-3-O-methyl-4-C-[(4-dimethoxy-butylamino)-methyl]-α-L-ribopyranosyl)oxy]-2-ethyl-3,4,10-trihydroxy-3,5,8,10,12,14-hexamethyl-11-[[3,4,6-trideoxy-3-(dimethylamino)-β-D-xylo-hexopyranosy]oxy]-1-oxa-7-azacyclopentadecan-15-one]
≦0.25 ug/mi	32 ug/mi	≦0.25 ug/mi	4 ug/mi	≦0.25 ug/mi	CC[C@H]1OC(=O)[C@H](C)[C@@H](O[C@H]2C[C@@](C)(OC)[C@](O)(CNCc3ccc(Cl)c(Cl)c3)[C@H](C)O2)[C@H](C)[C@@H](O[C@@H]2O[C@H](C)C[C@H](N(C)C)[C@H]2O)[C@](C)(O)C[C@@H](C)NC[C@H](C)[C@@H](O)[C@]1(C)O [syzx-57, (2R,3S,4R,5S,8R,10R,11R,12S,13S,14R)-13-[(2,6-dideoxy-3-C-methyl-3-O-methyl-4-C-[(3,4-dichloro-benzylamino)-methyl]-α-L-ribopyranosyl)oxy]-2-ethyl-3,4,10-trihydroxy-3,5,8,10,12,14-hexamethyl-11-[[3,4,6-trideoxy-3-(dimethylamino)-β-D-xylo-hexopyranosy]oxy]-1-oxa-7-azacyclopentadecan-15-one]
0.5 ug/mi	2 ug/mi	32 ug/mi	2 ug/mi	1 ug/mi	CC[C@H]1OC(=O)[C@H](C)[C@@H](O[C@H]2C[C@@](C)(OC)[C@](O)(CNC(C)CCCN(C)C)[C@H](C)O2)[C@H](C)[C@@H](O[C@@H]2O[C@H](C)C[C@H](N(C)C)[C@H]2O)[C@](C)(O)C[C@@H](C)NC[C@H](C)[C@@H](O)[C@]1(C)O (stereo partly drawn) [syzx-59, (2R,3S,4R,5S,8R,10R,11R,12S,13S,14R)-13-[(2,6-dideoxy-3-C-methyl-3-O-methyl-4-C-[(1-methyl-4-dimethylaminobutylamino)-methyl]-α-L-ribopyranosyl)oxy]-2-ethyl-3,4,10-trihydroxy-3,5,8,10,12,14-hexamethyl-11-[[3,4,6-trideoxy-3-(dimethylamino)-β-D-xylo-hexopyranosy]oxy]-1-oxa-7-azacyclopentadecan-15-one]
1 ug/mi	2 ug/mi	8 ug/mi	2 ug/mi	1 ug/mi	CCC1OC(=O)C(C)C(OC2CC(C)(OC)C(O)(CNCCCNC3CCCCC3)C(C)O2)C(C)C(OC2OC(C)CC(N(C)C)C2O)C(C)(O)CC(C)NCC(C)C(O)C1(C)O [syzx-60, (2R,3S,4R,5S,8R,10R,11R,12S,13S,14R)-13-[(2,6-dideoxy-3-C-methyl-3-O-methyl-4-C-[[(3-cyclohexylamino)propylamino]-methyl]-α-L-ribopyranosyl)oxy]-2-ethyl-3,4,10-trihydroxy-3,5,8,10,12,14-hexamethyl-11-[[3,4,6-trideoxy-3-(dimethylamino)-β-D-xylo-hexopyranosy]oxy]-1-oxa-7-azacyclopentadecan-15-one]
≦0.25 ug/mi	0.5 ug/mi	8 ug/mi	≦0.25 ug/mi	0.5 ug/mi	C#CC=C(C)NC[C@]1(O)[C@H](C)O[C@@H](O[C@H]2[C@H](C)[C@@H](O[C@@H]3O[C@H](C)C[C@H](N(C)C)[C@H]3O)[C@](C)(O)C[C@@H](C)NC[C@H](C)[C@@H](O)[C@](C)(O)[C@@H](CC)OC(=O)[C@@H]2C)C[C@@]1(C)OC [syzx-62]
≦0.25 ug/mi	≦0.25 ug/mi	0.5 ug/mi	≦0.25 ug/mi	0.5 ug/mi	CCCC(C)NC[C@]1(O)[C@H](C)O[C@@H](O[C@H]2[C@H](C)[C@@H](O[C@@H]3O[C@H](C)C[C@H](N(C)C)[C@H]3O)[C@](C)(O)C[C@@H](C)NC[C@H](C)[C@@H](O)[C@](C)(O)[C@@H](CC)OC(=O)[C@@H]2C)C[C@@]1(C)OC (stereo partly shown) [syzx-63]
≦0.25 ug/mi	8 ug/mi	8 ug/mi	≦0.25 ug/mi	≦0.25 ug/mi	CC[C@H]1OC(=O)[C@H](C)[C@@H](O[C@H]2C[C@@](C)(OC)[C@](O)(CNc3ccccc3F)[C@H](C)O2)[C@H](C)[C@@H](O[C@@H]2O[C@H](C)C[C@H](N(C)C)[C@H]2O)[C@](C)(O)C[C@@H](C)NC[C@H](C)[C@@H](O)[C@]1(C)O [syzx-68, (2R,3S,4R,5S,8R,10R,11R,12S,13S,14R)-13-[(2,6-dideoxy-3-C-methyl-3-O-methyl-4-C-[(2-fluoro-phenyl-amino)-methyl]-α-L-ribopyranosyl)oxy]-2-ethyl-3,4,10-trihydroxy-3,5,8,10,12,14-hexamethyl-11-[[3,4,6-trideoxy-3-(dimethylamino)-β-D-xylo-hexopyranosy]oxy]-1-oxa-7-azacyclopentadecan-15-one]
1 ug/mi	0.5 ug/mi	1 ug/mi	0.5 ug/mi	1 ug/mi	CC[C@H]1OC(=O)[C@H](C)[C@@H](O[C@H]2C[C@@](C)(OC)[C@](O)(CNCCCN3CCOCC3)[C@H](C)O2)[C@H](C)[C@@H](O[C@@H]2O[C@H](C)C[C@H](N(C)C)[C@H]2O)[C@](C)(O)C[C@@H](C)NC[C@H](C)[C@@H](O)[C@]1(C)O [syzx-69, (2R,3S,4R,5S,8R,10R,11R,12S,13S,14R)-13-[(2,6-dideoxy-3-C-methyl-3-O-methyl-4-C-[(3-morpholinyl-propyl-amino)-methyl]-α-L-ribopyranosyl)oxy]-2-ethyl-3,4,10-trihydroxy-3,5,8,10,12,14-hexamethyl-11-[[3,4,6-trideoxy-3-(dimethylamino)-β-D-xylo-hexopyranosy]oxy]-1-oxa-7-azacyclopentadecan-15-one]

Compound	MIC values, Haemophilus parasuis (Haemophilus parasuis)	MIC values, Pasteurella multocida CVCC399 [1]	MIC values, Actinobacillus pleuropneumoniae CVCC262 [2]	MIC values, Streptococcus equines CVCC556 [3]	MIC values, Staphylococcus aureus CVCC26003 [4]
CC[C@H]1OC(=O)[C@H](C)[C@H](O[C@H]2C[C@@](C)(OC)[C@](O)(CNCCc3ccncc3)[C@H](C)O2)[C@H](C)[C@@H](O[C@@H]2O[C@H](C)C[C@H](N(C)C)[C@H]2O)[C@](C)(O)C[C@@H](C)NC[C@H](C)[C@@H](O)[C@]1(C)O [syzx-64]	≦0.25 ug/mi	0.25 ug/mi	0.5 ug/mi	0.25 ug/mi	≦0.25 ug/mi
